The values that follow come from ChEMBL document CHEMBL1201862, “PubChem BioAssay data set” (2004).

Test systems include MOLT-4; SW-620; 786-0; SN12C; LOX IMVI; SR; U-251; K562; CCRF-CEM; ACHN; M14; SK-MEL-28; SNB-78; NCI-H522; Malme-3M; A549; SNB-75; HCT-15; MDA-N; MDA-MB-435.
What all share (assay): NCI anticancer screen, dose series, 48 h

Structures are written as SMILES.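 Step 1: Grow cells in 96-well plates. Step 2: Expose to compound for 48 hours at 5 concentrations. Step 3: Interpolate endpoints linearly; if unreached, use highest concentration. Abbreviation: GI50, concentration required for 50% inhibition of growth.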 Activity calls are given as the source filed them. No stated cut-off is given here; in the data, active = GI50 up to about 1.1 µM and inactive = higher.

Regarding `c1ccc2c(c1)[Se]c1ccccc1[Se]2`, the GI50 with MOLT-4 is 77.6 µM (inactive); with SW-620, > 100 µM (inactive); in the test on 786-0 it was > 100 µM (inactive); in the test on SN12C, > 100 µM (inactive); with LOX IMVI, > 100 µM (inactive); in the test with SR, 85.3 µM (inactive). Also, the GI50 in the test on U-251 is 37.5 µM (inactive); in the test on K562, > 100 µM (inactive); in the test with CCRF-CEM, 57.8 µM (inactive); with ACHN, > 100 µM (inactive); with M14, > 100 µM (inactive); in the test on SK-MEL-28, > 100 µM (inactive). For the same molecule, the GI50 in the test on SNB-78 was 30.5 µM (inactive); in the test on NCI-H522, > 100 µM (inactive); in the test on Malme-3M it was > 100 µM (inactive); with A549, 53.6 µM (inactive); in the test with SNB-75 it was 21.2 µM (inactive).
Take `Cc1cc(NC(=O)C2C3C=CC(O3)C2C(=O)O)no1` (configuration not stated): the GI50 with MOLT-4 was 32.6 µM (inactive); with SW-620 it was 1.5 µM (inactive); with 786-0 it was 17.4 µM (inactive); in the test on SN12C, 37.6 µM (inactive); with LOX IMVI, 14.3 µM (inactive); with SR it was 21.8 µM (inactive). Besides, the GI50 is 21.3 µM (inactive) with U-251; 22.2 µM (inactive) with K562; 19.1 µM (inactive) with CCRF-CEM; 39.7 µM (inactive) in the test on ACHN; > 100 µM (inactive) in the test on M14; 18.5 µM in the test on HCT-15. The GI50 was 97.7 µM (inactive) in the test with SK-MEL-28; > 100 µM (inactive) in the test with SNB-78; > 100 µM (inactive) with NCI-H522; > 100 µM (inactive) in the test with Malme-3M; 34.8 µM (inactive) with A549; > 100 µM (inactive) with SNB-75.
Regarding `O=C1NC(=O)C(CCC(=O)c2ccc3ccccc3c2)C(=O)N1`, the GI50 in the test on MOLT-4, in the test with SW-620, with 786-0, in the test on SN12C, in the test on LOX IMVI and with SR was > 100 µM (inactive) each time. Moreover, the GI50 is > 100 µM (inactive) with U-251; > 100 µM (inactive) in the test on K562; > 100 µM (inactive) in the test with CCRF-CEM; > 100 µM (inactive) with ACHN; > 100 µM (inactive) in the test on M14; over 100 µM in the test with HCT-15. The GI50 was > 100 µM (inactive) in the test with SK-MEL-28; > 100 µM (inactive) in the test on SNB-78; 20.1 µM (inactive) in the test with NCI-H522; > 100 µM (inactive) in the test on Malme-3M; > 100 µM (inactive) in the test with A549; > 100 µM (inactive) in the test on SNB-75.
Consider `CCN(CC)CCNc1c2ccccc2nc2cccc([N+](=O)[O-])c12`, for which the GI50 in the test with MOLT-4 is 0.0117 µM (active); in the test with SW-620, 0.0116 µM (active); in the test with 786-0 it was 0.0136 µM (active); in the test with SN12C, 0.0124 µM (active); in the test on LOX IMVI, 0.0225 µM (active); in the test with SR, 0.00434 µM (active). The GI50 is 0.0123 µM (active) in the test with U-251; 0.0157 µM (active) with K562; 0.0462 µM (active) in the test with CCRF-CEM; 0.00665 µM (active) with ACHN; 0.00925 µM (active) in the test with M14; 0.00179 µM (active) in the test with MDA-N. The GI50 in the test with HCT-15 was 0.00701 µM; in the test on SK-MEL-28 it was 0.04 µM (active); in the test with MDA-MB-435, 0.00164 µM (active); in the test on SNB-78, 0.0993 µM (active); with NCI-H522 it was 0.00434 µM (active); in the test on Malme-3M it was 0.00953 µM (active). The figures for the GI50 in the test on A549 and in the test on SNB-75 were 0.00826 µM (active) and 0.0176 µM (active), respectively.
Turning to `COc1cccc(SSc2cccc(OC)c2C(=O)O)c1C(=O)O`, the GI50 in the test with MOLT-4, with SW-620, in the test on 786-0, with SN12C, in the test on LOX IMVI and in the test on SR was > 100 µM (inactive) each time. Besides, the GI50 in the test on U-251 is > 100 µM (inactive); in the test on K562 it was > 100 µM (inactive); in the test on CCRF-CEM, > 100 µM (inactive); in the test on ACHN, > 100 µM (inactive); in the test with M14, > 100 µM (inactive); in the test on HCT-15, over 100 µM. Further, the GI50 in the test with SK-MEL-28, in the test with SNB-78, in the test with NCI-H522, in the test with Malme-3M, in the test on A549 and in the test on SNB-75 was > 100 µM (inactive) each time.
With `O=C(CNc1ccc2c(=S)c3ccccc3[nH]c2c1)Nc1ccccc1-c1ccccc1NC(=O)CNc1ccc2c(=S)c3ccccc3[nH]c2c1`, the GI50 was 3.96 µM (inactive) in the test on MOLT-4; 18.4 µM (inactive) in the test on SW-620; 13.1 µM (inactive) in the test with 786-0; 22.2 µM (inactive) in the test on SN12C; 19.9 µM (inactive) in the test with LOX IMVI; 6.01 µM (inactive) in the test on SR. Further, the GI50 in the test on U-251 is 19.6 µM (inactive); in the test on K562 it was 2.85 µM (inactive); in the test on CCRF-CEM, 2.73 µM (inactive); in the test on ACHN it was 15.8 µM (inactive); with M14, 16.3 µM (inactive); in the test on MDA-N it was 18.1 µM (inactive). The GI50 in the test on HCT-15 is 19.4 µM; in the test with SK-MEL-28 it was 21.9 µM (inactive); with MDA-MB-435, 24 µM (inactive); in the test with SNB-78 it was 32.9 µM (inactive); in the test on NCI-H522, 6.38 µM (inactive); in the test on Malme-3M, 15.7 µM (inactive). In addition, the GI50 was 24.3 µM (inactive) in the test on A549 and 26.5 µM (inactive) in the test with SNB-75.
For `NCCCC(N)(C(=O)O)C(F)F` (configuration not stated) [EFLORNITHINE], the GI50 in the test on MOLT-4 was 3030 µM (inactive); in the test on SW-620 it was > 5000 µM (inactive); with 786-0 it was > 100 µM (inactive); with SN12C, > 1980 µM (inactive); in the test on LOX IMVI, 678 µM (inactive); in the test on SR it was > 100 µM (inactive). Also, the GI50 in the test on U-251 was > 5000 µM (inactive); with K562, > 2880 µM (inactive); with CCRF-CEM, > 1580 µM (inactive); in the test on ACHN, > 100 µM (inactive); in the test on M14 it was > 100 µM (inactive); with HCT-15, 769 µM. The GI50 with SK-MEL-28 was > 5000 µM (inactive); in the test on SNB-78, > 5000 µM (inactive); in the test with NCI-H522 it was > 5000 µM (inactive); in the test with Malme-3M, > 5000 µM (inactive); with A549, > 5000 µM (inactive); in the test on SNB-75 it was 2340 µM (inactive).
As to `O=CN/C=C/c1cc(O)ccc1O` [ERBSTATIN], the GI50 in the test on MOLT-4 is 22.9 µM (inactive); in the test on SW-620, 8.75 µM (inactive); in the test on 786-0 it was 14 µM (inactive); in the test on SN12C, 16.7 µM (inactive); in the test on LOX IMVI, 14 µM (inactive); in the test on SR, 4.39 µM (inactive). Moreover, the GI50 was 42.3 µM (inactive) in the test with U-251; 14.8 µM (inactive) in the test with K562; 4.11 µM (inactive) in the test with CCRF-CEM; 14.8 µM (inactive) in the test on ACHN; 14.9 µM (inactive) in the test on M14; 13.3 µM in the test with HCT-15. Also, the GI50 in the test with SK-MEL-28 was 23.4 µM (inactive); in the test with SNB-78, 19 µM (inactive); with NCI-H522 it was 4.6 µM (inactive); with Malme-3M, 17.9 µM (inactive); in the test with A549, > 65.6 µM (inactive); with SNB-75, 62.4 µM (inactive).
